Measured values taken from patent US20080287323A1, “Treatment and Reuse of Oilfield Produced Water” (priority 2007, published 2008).

Tested on: bacteria and/or enzymes in the produced water
Assay: Fann 50 viscosity test of guar or CMHPG gels prepared from pretreated oilfield produced water
Conditions: similar borate-crosslinked guar gels versus "as is" produced water
Protocol: Example of produced water treated with zirconyl chloride: Produced water PW4 was treated with 0.36 mL/L of zirconyl chloride solution M14. The mixture was stirred and then let stand for 30 minutes or more. Gels comprising borate-crosslinked guar were prepared with 8.8 mL/L M1, 6.0 mL/L M10, and 2.5 mL/L M11, in both the untreated and the M14-treated PW4 produced water. The viscosities of the fluids were tested with a Fann 50 viscometer.
Example of produced water treated with zirconium tetrachloride (ZTC): Produced water PW5-1 was treated with 1 mL/L of an aqueous solution of ZTC (containing an equivalent of 7.0 wt % ZrO2), stirred and then let stand for 1 day. Gels comprising borate-crosslinked guar were prepared with 8.8 mL/L M1, 6.0 mL/L M10 and 2.5 mL/L M11, using the treated (ES5) and untreated water (PW5-1, as is), and the viscosity of the fluids was tested with a Fann 50 viscometer at 93° C.
Examples of produced water treated with other inorganic heavy metal ions: Gels of borate-crosslinked guar were prepared from 8.8 mL/L M1, 6.0 mL/L M10 and 2.5 mL/L M11, added to two samples of BaCl2-treated PW6-1 produced water—0.28 g/L BaCl2 in ES6 and 3.4 g/L BaCl2 in ES7, followed by individual stirring for 30 minutes. […]

[Cl][Cu][Cl] [CuCl2]
effect of produced water treatment on gel viscosity (in words): did not obviously improve the viscosity
